Article PMC10094617, “Iron(III) Complexes with Non-Steroidal Anti-Inflammatory Drugs: Structure, Antioxidant and Anticholinergic Activity, and Interaction with Biomolecules” (International Journal of Molecular Sciences, 2023)

Legend:
[1] = ABTS radical cation scavenging; type: biochemical; details: compound 0.1 mM; 1 min after mixing
Procedure: The antioxidant activity of complexes 1–3 was evaluated via their ability to scavenge the free radicals DPPH, hydroxyl, and ABTS. Each experiment was performed in triplicate and the standard deviation of absorbance was less than 10% of the mean.
Assay of radical cation scavenging activity (ABTS^+•): An ABTS cationic radical (ABTS^+•) was produced by reacting an aqueous stock solution (2 mM) of ABTS with 0.17-mM potassium persulfate and allowing the mixture to stand in the dark at room temperature for 12–16 h before use. […] Although the oxidation of ABTS commenced immediately, the absorbance became maximal and stable after 6 h. The radical was stable in this form for more than two days when stored in the dark at room temperature. The ABTS radical solution was diluted with ethanol to an absorbance of 0.70 at 734 nm. After the addition of 10 μL of complexes 1–3 or the standards (0.1 mM) in DMSO, the absorbance was recorded exactly 1 min after initial mixing. The radical scavenging activity of the complexes was expressed as the percentage inhibition of the absorbance of the initial ABTS solution (ABTS%). Trolox was used as a reference compound.

EB–DNA adduct (CT DNA) = assay: EB-displacement from EB–DNA adduct (fluorescence emission); type: binding, calf; details: for KSV Stern–Volmer constant (EB–DNA): EB–DNA fluorescence; for relative EB–DNA fluorescence intensity (I/Io, %) remaining: λem = 592 nm, up to, % of the initial EB–DNA fluorescence; for Kq quenching constant of the EB–DNA fluorescence: τo = 23 ns
Procedure: EB-displacement studies: The competition of complexes 1–3 with EB was investigated by fluorescence emission spectroscopy in order to examine whether the complexes can displace EB from its DNA–EB conjugate. The DNA–EB conjugate was prepared by adding 20-μM EB and 26-μM CT DNA in the buffer solution (150-mM NaCl and 15-mM trisodium citrate at pH 7.0). The possible intercalating effect of the complexes was studied by the addition of a certain amount of a solution of the compound into a solution of the DNA–EB conjugate. The influence of each compound to the DNA–EB complex solution was obtained by recording the changes in the fluorescence emission spectra with the excitation wavelength (λex) at 540 nm.
The Stern–Volmer constant KSV is used to evaluate the quenching efficiency for each compound according to the Stern–Volmer equation (Equation (3)), where Io and I are the emission intensities in the absence and the presence of the quencher, respectively, and [Q] is the concentration of the quencher (i.e., complexes 1–3). The value of KSV is obtained from the Stern–Volmer plots by using the slope of the diagram Io/I versus [Q]. Taking τo = 23 ns as the fluorescence lifetime of the EB–DNA system, the EB–DNA quenching constants (Kq, in M^−1s^−1) of the compounds can be determined according to Equation (4).

| Substance | ABTS% (ABTS radical scavenging activity) [1] [%] | KSV Stern–Volmer constant (EB–DNA) (EB–DNA adduct (CT DNA)) | ΔI/Io (%) EB–DNA fluorescence quenching (EB–DNA adduct (CT DNA); [EB] = 20 μM, [DNA] = 26 μM, λex 540 nm, λem 592 nm) [%] | relative EB–DNA fluorescence intensity (I/Io, %) remaining (EB–DNA adduct (CT DNA)) [%] | Kq quenching constant of the EB–DNA fluorescence (EB–DNA adduct (CT DNA)) |
| --- | --- | --- | --- | --- | --- |
| [Fe3O(dicl)6(MeOH)3][FeCl4]·Hdicl·1.5MeOH∙H2O [Complex 3] | 87.72 ± 0.36 | 1.53 (±0.51) × 10^6 M^−1 | 74.3 | 25.7 | 6.66 (±0.23) × 10^13 M^−1s^−1 |
| [Fe3O(dicl)6(py)3]Cl∙py [Complex 2] | 85.39 ± 0.52 | 6.15 (±0.29) × 10^5 M^−1 |  | 41.8 | 2.68 (±0.56) × 10^13 M^−1s^−1 |
